By pIC50 is commonly meant the IC50 on a negative log10 scale, so that one unit is a factor of ten.

pIC50: −log10 of the molar value.

Common to all, as to assay type: cell-based
The target in assay [1] is T1, human MCT1 (Homo sapiens, UniProt P53985).
T1 construct: host or cells: MDCK-II (canine) cells, transient co-transfection
T1 sequence (P53985 1-500): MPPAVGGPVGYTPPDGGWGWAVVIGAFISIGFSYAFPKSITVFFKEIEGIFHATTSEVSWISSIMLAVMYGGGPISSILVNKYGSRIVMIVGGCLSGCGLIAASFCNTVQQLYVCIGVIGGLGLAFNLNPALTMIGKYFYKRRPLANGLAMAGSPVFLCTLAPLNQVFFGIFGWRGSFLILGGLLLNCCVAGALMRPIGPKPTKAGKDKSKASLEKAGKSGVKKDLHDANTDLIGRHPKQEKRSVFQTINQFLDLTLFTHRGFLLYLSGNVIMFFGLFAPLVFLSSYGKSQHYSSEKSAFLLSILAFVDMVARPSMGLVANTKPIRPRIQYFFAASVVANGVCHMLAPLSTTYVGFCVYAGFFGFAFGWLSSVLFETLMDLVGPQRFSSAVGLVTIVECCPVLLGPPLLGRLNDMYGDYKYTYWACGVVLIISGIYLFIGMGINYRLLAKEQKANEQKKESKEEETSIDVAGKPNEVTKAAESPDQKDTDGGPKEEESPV
T1 sequence (P35613 140-385 partner limits assumed): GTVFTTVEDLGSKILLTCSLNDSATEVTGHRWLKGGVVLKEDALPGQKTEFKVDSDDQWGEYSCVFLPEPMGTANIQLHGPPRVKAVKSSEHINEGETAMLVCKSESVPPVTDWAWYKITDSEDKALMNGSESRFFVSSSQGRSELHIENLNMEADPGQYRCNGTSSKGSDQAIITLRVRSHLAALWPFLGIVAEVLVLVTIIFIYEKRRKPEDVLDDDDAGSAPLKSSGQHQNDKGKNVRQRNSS
The assay can be described thus: MCT1 Transport Inhibition Assay (TPGA uptake, LC-MS/MS). As for the experimental part: Inhibition of MCT1 transport after treatment with compounds of the present invention was measured in MDCK-II cells that overexpress human MCT1 by quantifying the transport of 2-Thiophene-glycoxylic acid (TPGA) into cells using LC-MS/MS.
MDCK-II cells are seeded at 60,000 cells per well in growth medium (low-glucose DMEM+10% FBS) in 96-well trans-well membrane plates, and incubated overnight (37° C., 5% CO2). Cells were co-transfected with mammalian expression constructs coding for MCT1 and CD147 at a 2:1 ratio or an empty vector control (GFP) and then incubated for 48 h (37° C., 5% CO2). Cells were washed 3 times with HBSS and cells were preincubated with inhibitors or vehicle control at room temperature in HBSS for 30 min with orbital shaking (60 rpm). HBSS was aspirated from the wells and replaced with HBSS with 25 mM Bis-Tris pH5.5+inhibitor or vehicle control+500 μM TPGA and incubated for 1 min at room temperature with orbital shaking (60 rpm). Both the apical and basolateral side of the trans-well insert were washed 4 times with ice-cold PBS. Cells were lysed with 60 μL of cell extraction solution, and the amount of TPGA in each well was quantified in triplicate by LC-MS/MS. The MCT1-mediated uptake rate was calculated using the following equation: […]
Percent inhibition for each concentration of inhibitor tested was calculated using the following equation: […]
Curves were fit to the calculated percent inhibition for each inhibitor, and the IC50 representing the concentration of inhibitor at which MCT1 is inhibited by 50% was calculated from this curve.
Canine MDCKII cells expressing human MCT1 were treated with a titration of Compound 67A, and import of the MCT1 substrate, 2-TPGA was measured by LC-MS (FIG. 1).

For assay [2], the target named is T2, human MCT1 (Homo sapiens, UniProt P53985).
T2 construct: expressed in transfected cells
T2 sequence (P53985 1-500): T1 sequence (P53985 1-500)
T2 sequence (P26453 23-388 partner): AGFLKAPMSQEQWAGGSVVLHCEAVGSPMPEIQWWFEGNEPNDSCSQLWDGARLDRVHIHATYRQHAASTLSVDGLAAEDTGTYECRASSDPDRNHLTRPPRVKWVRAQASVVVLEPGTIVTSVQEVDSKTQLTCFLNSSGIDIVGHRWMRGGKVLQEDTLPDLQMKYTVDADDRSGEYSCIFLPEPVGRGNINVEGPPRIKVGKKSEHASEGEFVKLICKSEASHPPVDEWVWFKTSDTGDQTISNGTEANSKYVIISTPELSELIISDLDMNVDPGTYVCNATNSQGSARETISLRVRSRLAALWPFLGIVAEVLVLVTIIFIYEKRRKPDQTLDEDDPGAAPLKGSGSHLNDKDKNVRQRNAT
The assay can be described thus: Inhibition of 3BP import (rescue of viability) in MCT1-overexpressing INS-1 cells. The following applies: INS-1 cells over-expressing human MCT1, rescue from LC100 3BP. The method, then:
(§1) Human MCT1-4 were stably expressed in INS-1 rat pancreatic islet B-cells, which are deficient in endogenous MCT expression. 3-Bromopyruvate (3BP), a highly reactive and cytotoxic monocarboxylate, can enter the INS-1 cells via the overexpressed MCT isoform, resulting in rapid cell death. However, prevention of 3BP transport into the cell by an MCT inhibitor can prevent 3BP-mediated cell death (FIG. 16).
(§2) INS-1 cells over-expressing an MCT paralog were treated with a titration of 3BP to determine the lowest concentration that results in 100% cell killing (LC100). The INS-1 cells were then pre-treated with a titration of Compound 67A before exposure to the LC100 concentration of 3BP specific for that MCT-over-expressing cell line, and rescue of cell viability was measured (FIG. 17).

Assay [3] has as its target T3, Human MCT3 (Homo sapiens, UniProt O95907).
T3 construct: expressed in transfected cells
T3 sequence (O95907 1-504): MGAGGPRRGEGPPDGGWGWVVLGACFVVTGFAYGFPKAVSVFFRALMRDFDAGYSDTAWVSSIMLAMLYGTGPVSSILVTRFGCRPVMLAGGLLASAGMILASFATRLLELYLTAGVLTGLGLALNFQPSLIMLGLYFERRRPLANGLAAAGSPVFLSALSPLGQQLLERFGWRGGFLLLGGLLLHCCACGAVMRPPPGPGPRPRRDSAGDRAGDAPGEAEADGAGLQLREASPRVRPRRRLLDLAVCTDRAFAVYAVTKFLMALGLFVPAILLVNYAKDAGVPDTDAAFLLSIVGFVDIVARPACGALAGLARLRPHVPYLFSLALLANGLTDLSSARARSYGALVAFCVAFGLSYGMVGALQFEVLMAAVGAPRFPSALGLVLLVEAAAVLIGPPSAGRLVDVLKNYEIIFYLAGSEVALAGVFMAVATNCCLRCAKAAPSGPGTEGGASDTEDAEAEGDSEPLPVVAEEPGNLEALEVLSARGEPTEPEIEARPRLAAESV
T3 sequence (P26453 23-388 partner): T2 sequence (P26453 23-388 partner)
The assay can be described thus: Inhibition of 3BP import (rescue of viability) in MCT3-overexpressing INS-1 cells. Conditions: INS-1 cells over-expressing human MCT3, rescue from LC100 3BP. As for the experimental part:
as §1, §2

The mark [4] stands for this setting: MDCK-II cells overexpressing human MCT1, TPGA transport, read-out: BioIVT MCT1 Transporter IC50.

Regarding `CC(C)OC(=O)Nc1ccc(-c2cnc([C@H]3CC[C@H](NC(=O)OC(C)C)CC3)s2)c(S(=O)(=O)NC(C)(C)C)c1` [Compound 67A], the pIC50 is 6.87 in assay [1] (Canine MDCKII cells expressing human MCT1, LC-MS, read-out: inhibits 2-TPGA import, IC50); 6.82 to 7.30 in assay [1] (setting [4]); 6.00 to 7.00 in assay [2]; 4.48 to 5.00 in assay [3].

On to `O=C(Nc1ccccc1C(=O)O)c1cc(S(=O)(=O)c2ccccc2)ccc1Cl` [BAY8002], for which the negative-log IC50 (pIC50) is 6.82 to 7.30 in assay [1] (setting [4]), 5.00 to 6.00 in assay [2] and < 4.48 in assay [3].

Turning to AZD3965, the pIC50 is 6.00 to 6.82 in assay [1] (setting [4]), > 7.00 in assay [2] and < 4.48 in assay [3].
